# Measurements from patent US20210346359A1, “Use of CFTR Modulators For Treating Cerebrovascular Conditions” (Qanatpharma AG, priority 2018, published 2021).
# Entries after “also recorded” stand apart in the source; their conditions may differ.
# Assays:
# wild-type CFTR = wild-type CFTR (Homo sapiens, UniProt P13569); conditions: demonstrated earlier (15); cited from earlier work
# CFTR [1] = biological target: T1, CFTR (Mus musculus, UniProt P26361); assay: Forskolin-stimulated iodide efflux in vascular smooth muscle cells; format: cell-based; set-up: mesenteric artery segments were isolated, cut into small pieces and digested with trypsin, collagenase and elastase; endogenous in cells; host or cells: primary mesenteric artery vascular smooth muscle cells; conditions: primary vascular smooth muscle cells; 48 h TNF 10 ng/ml + C18 6 μmol/L for last 24 h
# Experimental: Procedures for isolating and culturing mesenteric artery smooth muscle cells were carried out as described in (10). Briefly, mesenteric artery segments were isolated, cut into small pieces and digested with trypsin, collagenase and elastase. The resulting cell suspension was washed several times in phosphate-buffered saline and plated in Dulbecco's Modified Eagle Medium (DMEM) culture media containing 10% fetal bovine serum and 1% penicillin-streptomycin. Cell cultures were maintained at 37° C. with 5% CO2 and split at 106 cells seeding density. […]
# Iodide efflux measurements were conducted as previously described (18). […] Supernatant iodide levels were quantified with an iodide-selective electrode (Lazar Research Laboratories; Los Angeles, USA), calibrated with Nal standards. Pre-stimulation iodide levels were determined and then cells were stimulated with a cocktail containing 10 μmol/L forskolin, 1 mmol/L isobutylmethylxanthine and 100 μmol/L cpt-cAMP (in 1% v/v DMSO). […] Supernatant iodide levels were determined over seven consecutive 1-minute intervals post-stimulation. […] The maximum efflux rate, therefore, was calculated using the measured efflux level between 60-120 seconds post-stimulation (18).
# CFTR [2] = biological target: T1, CFTR; assay: CFTR protein expression in TNF-treated mesenteric artery primary vascular smooth muscle cells; format: cell-based; set-up: mesenteric artery segments were isolated, cut into small pieces and digested with trypsin, collagenase and elastase; endogenous in cells; host or cells: primary mesenteric artery vascular smooth muscle cells; conditions: 48 h TNF 10 ng/ml + C18 6 μmol/L for last 24 h
# Experimental: (§1) Procedures for isolating and culturing mesenteric artery smooth muscle cells were carried out as described in (10). Briefly, mesenteric artery segments were isolated, cut into small pieces and digested with trypsin, collagenase and elastase. The resulting cell suspension was washed several times in phosphate-buffered saline and plated in Dulbecco's Modified Eagle Medium (DMEM) culture media containing 10% fetal bovine serum and 1% penicillin-streptomycin. Cell cultures were maintained at 37° C. with 5% CO2 and split at […] cells seeding density. Baby hamster kidney fibroblast cells stably expressing wild-type human CFTR (10,17) were maintained in DMEM/F12 media containing 5% fetal bovine serum and 250 μmol/L methotrexate (which activates the CFTR transgene promoter). Cells were maintained under standard cell culture conditions at 37° C. with 5% CO2.
# Western blots for CFTR were completed as previously described (12, 18). […]
# The primary antibodies were conjugated with either peroxidase-labeled donkey anti-rabbit IgG (GE Healthcare Amersham (Piscataway, USA) cat# NA934) or peroxidase-labeled goat anti-mouse IgG (GE Healthcare Amersham cat# NA931) secondary antibodies. […] Developed films were evaluated densitometrically using “Image J” software (freely available from the NIH); digital images were evaluated with Image Lab software (Bio-Rad).
# CFTR [3] = biological target: T1, CFTR; assay: FACS-based FITC-S1P uptake in vascular smooth muscle cells; format: cell-based; set-up: mesenteric artery segments were isolated, cut into small pieces and digested with trypsin, collagenase and elastase; endogenous in cells; host or cells: primary mesenteric artery vascular smooth muscle cells; conditions: primary vascular smooth muscle cells; 48 h TNF 10 ng/ml + C18 6 μmol/L for last 24 h
# Experimental: as §1
# As previously described (10), cell monolayers (treated or untreated) were incubated with 1 μmol/L S1P-FITC for 60 minutes; the cells were then detached by trypsinization, washed twice with ice-cold PBS, filtered through a 35 μm cell strainer and analyzed using the Becton-Dickinson FACS Canto operated by FACS DIVA version 6.1 software. […] The analysis procedure determined the mean fluorescence intensity (arbitrary units) of each cell population, which is a measure of uptake.
# [4] = system: mice with subarachnoid hemorrhage; assay: Modified Garcia neurological score in subarachnoid hemorrhage mice; format: in vivo, mouse; conditions: SAH mice, 2 days post-SAH, maximum score 18, 3 mg/kg daily for 2 days
# Experimental: Neurological Function Assessment: Neurological function was assessed utilizing the modified Garcia score, as previously described (6). The neurological assessment consists of 6 domains: spontaneous activity, spontaneous movement of all 4 limbs, forepaw outstretching, climbing, body proprioception and response to vibrissae touch. Two blinded observers conducted the neurological assessment 2 days after SAH. The maximum score is 18, indicative of normal neurological function.
# T1 sequence (P26361 whole entry): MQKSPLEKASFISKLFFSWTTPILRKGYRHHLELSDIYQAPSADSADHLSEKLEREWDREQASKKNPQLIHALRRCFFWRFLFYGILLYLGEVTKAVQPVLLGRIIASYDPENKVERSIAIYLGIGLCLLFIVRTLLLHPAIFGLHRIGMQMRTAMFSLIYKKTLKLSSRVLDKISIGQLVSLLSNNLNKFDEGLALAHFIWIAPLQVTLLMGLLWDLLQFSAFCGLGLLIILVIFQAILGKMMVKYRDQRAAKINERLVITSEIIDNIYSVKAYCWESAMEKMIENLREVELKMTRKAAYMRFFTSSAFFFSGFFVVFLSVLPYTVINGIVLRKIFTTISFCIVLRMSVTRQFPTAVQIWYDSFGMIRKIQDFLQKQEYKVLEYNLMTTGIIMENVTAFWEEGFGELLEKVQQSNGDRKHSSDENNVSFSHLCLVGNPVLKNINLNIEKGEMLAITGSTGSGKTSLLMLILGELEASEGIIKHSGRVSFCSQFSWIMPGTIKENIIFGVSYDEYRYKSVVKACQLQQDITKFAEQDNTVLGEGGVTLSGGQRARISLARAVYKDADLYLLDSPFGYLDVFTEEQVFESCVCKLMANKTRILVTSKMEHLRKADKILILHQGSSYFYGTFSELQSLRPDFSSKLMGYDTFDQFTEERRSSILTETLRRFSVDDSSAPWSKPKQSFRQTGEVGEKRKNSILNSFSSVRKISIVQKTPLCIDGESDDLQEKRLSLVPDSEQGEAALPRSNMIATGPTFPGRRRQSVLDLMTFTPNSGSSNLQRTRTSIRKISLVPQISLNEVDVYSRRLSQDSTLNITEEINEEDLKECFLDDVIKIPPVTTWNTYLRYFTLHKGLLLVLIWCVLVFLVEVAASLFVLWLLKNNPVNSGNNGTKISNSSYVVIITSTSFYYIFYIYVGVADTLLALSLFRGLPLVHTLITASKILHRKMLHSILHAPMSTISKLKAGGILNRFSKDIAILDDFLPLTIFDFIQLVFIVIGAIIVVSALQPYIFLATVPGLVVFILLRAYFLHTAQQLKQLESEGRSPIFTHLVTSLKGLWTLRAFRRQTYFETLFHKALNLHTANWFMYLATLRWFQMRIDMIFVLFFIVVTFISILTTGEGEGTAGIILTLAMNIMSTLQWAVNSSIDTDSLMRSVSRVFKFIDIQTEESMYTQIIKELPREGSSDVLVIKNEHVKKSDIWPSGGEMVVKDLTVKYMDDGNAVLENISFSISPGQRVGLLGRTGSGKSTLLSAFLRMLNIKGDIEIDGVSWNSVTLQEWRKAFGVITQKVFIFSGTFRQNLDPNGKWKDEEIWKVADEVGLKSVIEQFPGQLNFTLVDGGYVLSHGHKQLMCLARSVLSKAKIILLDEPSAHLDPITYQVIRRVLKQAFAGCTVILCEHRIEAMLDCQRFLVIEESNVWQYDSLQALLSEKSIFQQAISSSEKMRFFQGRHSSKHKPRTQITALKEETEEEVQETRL
# Sequence of wild-type CFTR (P13569 whole entry, species assumed): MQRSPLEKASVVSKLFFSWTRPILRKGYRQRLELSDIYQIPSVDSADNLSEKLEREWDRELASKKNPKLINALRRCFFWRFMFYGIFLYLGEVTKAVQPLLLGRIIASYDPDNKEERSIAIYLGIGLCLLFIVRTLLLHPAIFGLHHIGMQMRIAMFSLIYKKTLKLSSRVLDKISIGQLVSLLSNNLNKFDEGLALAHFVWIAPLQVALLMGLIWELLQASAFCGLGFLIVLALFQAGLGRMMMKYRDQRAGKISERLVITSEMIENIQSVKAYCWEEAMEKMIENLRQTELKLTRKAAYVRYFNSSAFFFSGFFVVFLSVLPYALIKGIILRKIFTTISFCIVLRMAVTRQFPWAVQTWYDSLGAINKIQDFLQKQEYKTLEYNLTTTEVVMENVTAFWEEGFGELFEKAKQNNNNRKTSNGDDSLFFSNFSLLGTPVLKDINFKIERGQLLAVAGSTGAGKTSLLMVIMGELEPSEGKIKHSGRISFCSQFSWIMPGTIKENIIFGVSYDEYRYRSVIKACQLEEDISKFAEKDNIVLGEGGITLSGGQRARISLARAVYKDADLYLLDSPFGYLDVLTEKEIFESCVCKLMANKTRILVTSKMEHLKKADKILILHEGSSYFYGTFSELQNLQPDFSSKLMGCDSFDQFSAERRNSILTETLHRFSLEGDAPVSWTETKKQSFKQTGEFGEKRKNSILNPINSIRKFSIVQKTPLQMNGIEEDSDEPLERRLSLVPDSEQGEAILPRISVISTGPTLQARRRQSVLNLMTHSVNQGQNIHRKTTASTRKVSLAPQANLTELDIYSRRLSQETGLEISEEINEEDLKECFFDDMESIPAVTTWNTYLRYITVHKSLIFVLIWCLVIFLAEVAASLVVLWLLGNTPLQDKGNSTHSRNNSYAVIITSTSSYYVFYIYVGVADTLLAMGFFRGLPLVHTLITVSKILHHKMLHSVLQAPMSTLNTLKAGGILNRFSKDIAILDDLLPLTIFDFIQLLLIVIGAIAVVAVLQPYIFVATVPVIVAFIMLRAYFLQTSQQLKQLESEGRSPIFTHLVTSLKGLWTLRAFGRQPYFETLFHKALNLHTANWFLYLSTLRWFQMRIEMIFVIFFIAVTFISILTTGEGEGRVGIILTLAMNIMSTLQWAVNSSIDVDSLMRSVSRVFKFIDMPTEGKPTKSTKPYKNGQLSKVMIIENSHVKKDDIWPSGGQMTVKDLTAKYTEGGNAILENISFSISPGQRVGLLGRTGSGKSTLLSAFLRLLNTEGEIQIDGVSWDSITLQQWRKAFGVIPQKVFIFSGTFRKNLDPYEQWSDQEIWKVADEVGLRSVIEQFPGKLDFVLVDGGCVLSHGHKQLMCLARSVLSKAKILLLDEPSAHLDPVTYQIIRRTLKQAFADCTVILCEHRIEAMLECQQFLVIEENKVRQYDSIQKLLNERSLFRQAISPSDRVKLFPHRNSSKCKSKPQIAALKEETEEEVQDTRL
compound,measurement,setting,value
"O=C(Nc1ncc(C(c2ccccc2Cl)N2CCC(O)C2)s1)C1(c2ccc3c(c2)OCO3)CC1 (centres unmarked) [C18, 1-(benzo[d][1,3]dioxol-5-yl)-N-(5-((2-chlorophenyl)(3-hydroxypyrrolidin-1-yl)methyl)thiazol-2-yl)cyclopropanecarboxamide]",interaction with wild-type CFTR / CFTR expression at the plasma membrane,wild-type CFTR,directly interacts with and stabilizes wild-type CFTR
same,forskolin-stimulated iodide efflux after TNF,CFTR [1],fully restores; also recorded: normalization
same,CFTR protein expression after TNF down-regulation,CFTR [2],reverses the decline; also recorded: fully restores
same,FITC-labeled sphingosine-1-phosphate uptake after TNF,CFTR [3],fully restores; also recorded: normalization
same,Modified Garcia score (neurological function),[4],comparable to sham-operated mice; also recorded: restores the neurological score to the sham level
